Laboratory results: patent US20100285959A1, “HERBICIDAL MIXTURES” (priority 2006, published 2010)

Tests used:
[1] = test system: winter wheat (TRZAW); assay: Test 19 growth chamber, postemergence; format: in vivo, Triticum aestivum
Procedure: (§1) A test was conducted to evaluate the effects on winter barley (HORVW, Hordeum vulgare L.) and winter wheat (TRZAW, Triticum aestivum L.) of mixtures of Compound 2 with the commercial herbicide (2,4-dichlorophenoxy)acetic acid (2,4-D), an auxin mimic. […] Plants were treated postemergence at the 3-leaf growth stage, and each treatment was replicated four times. […] Plants were watered as needed. […] Results are the means of the four replicates.

[2] = test system: field poppy (PAPRH); assay: Test 21 growth chamber, postemergence; format: in vivo, Papaver rhoeas; details: 19 DAA
Procedure: as §1, with “L.),” for “L.) and”, “L.), and several weed species,” for “L.)”, “2-4 leaf” for “3-leaf”, “one time.” for “four times.”, “from single” for “the means of the four”

[3] = test system: common lambsquarters (CHEAL); assay: Test 22 growth chamber, postemergence; format: in vivo, Chenopodium album; details: 25 DAA
Procedure: A test was conducted to evaluate the effects on winter barley (HORVW, Hordeum vulgare L.), winter wheat (TRZAW, Triticum aestivum L.), and several weed species of mixtures of Compound 2 with the commercial herbicides (2,4-dichlorophenoxy)acetic acid (2,4-D) and (4-chloro-2-methylphenoxy)acetic acid (MCPA), auxin mimics. […] Plants were treated postemergence at the 2-4 leaf growth stage, except KCHSC, SASKR and STEME which were in the 4-8 leaf growth stage. Each treatment was replicated one time. […] Plants were watered as needed. […] Results are from single replicates.

[4] = test system: common lambsquarters (CHEAL); assay: Test 3 field trial, emerged weeds before corn planting; format: in vivo, Chenopodium album; details: 68 DAA; Cpd 2 100, glyphosate 1540, paraquat 1150 g a.i./ha, alone or combined
Source text: Corn seeds (hybrid ‘Pioneer 33J56’) were planted in early spring season, 3.8 cm deep in a silt loam soil having 2.4% organic matter and a pH of 6. Plots were 6.1 m long by 2.7 m wide with rows spaced 91.4 cm apart. The field was managed using no-till practices. […] Compound 2 and paraquat treatments, alone and in combination, also included a surfactant. Glyphosate, alone and with Compound 2, included ammonium sulfate in the treatment mixture. […] The effects on the weeds in the treated plots and untreated control plots were recorded 30, 42, 46 and 68 days after application. Most of the weed species could not be evaluated at every timing. Corn response was not evaluated because the growth was highly variable depending on the efficacy of the weed control treatments. […] Results are the means of the three replicates.

[5] = test system: jimsonweed (DATST); assay: Test 7 field trial, preemergence; format: in vivo, Datura stramonium
Procedure: Plots were 7.6 m long by 3.0 m wide with rows spaced 76 cm apart. Seeds were spaced 15 cm apart within the rows. The field was managed using conventional tillage practices. […] Wild radish was evaluated 14 and 28 days after application. […] Results are the means of the three replicates.

[6] = test system: jimsonweed (DATST); assay: Test 14 field trial, preemergence, growth as percent of control; format: in vivo, Datura stramonium
Source text: Corn seeds (hybrid ‘Pioneer 31G96 RR’) were planted in mid spring season, 3.8 cm deep in a clay loam soil having 2% organic matter and a pH of 6.6. Plots were 6.1 m long by 3.0 m wide with rows spaced 76 cm apart. Seeds were spaced 15 cm apart within the rows. The field was managed using conventional tillage practices. […] Yellow nutsedge was only evaluated 19 and 28 days after application, and ivyleaf morningglory could only be evaluated 28 days after application. […] Results are the means of the three replicates. This growth inhibition data was converted to results in the form of “plant growth as a percent of control plant growth” using the calculation “100 minus growth inhibition”. […] For “growth as a percent of control” data, Colby's Equation calculates the expected additive effect of herbicidal mixtures having two active ingredients as follows:
Ga+b=GaGb/100 • wherein Ga+b is the growth as a percent of control of plants treated with the mixture expected from additive contribution of the individual components, • Ga is the observed growth as a percent of control of plants treated with the first active ingredient at the same use rate as in the mixture, and • Gb is the observed growth as a percent of control of plants treated with the second active ingredient at the same use rate as in the mixture. For mixtures having three active ingredients, Colby's Equation to calculate the expected additive effect of herbicidal mixtures is as follows:
Ga+b+c=GaGbGc/10,000 • wherein Ga and Gb are as defined above and • Ga+b+c is the growth as a percent of control of plants treated with the mixture expected from additive contribution of the individual components, and • Gc is the observed growth as a percent of control of plants treated with the third active ingredient at the same use rate as in the mixture. When these two forms of Colby's Equation are used, if the observed effects on weeds are less than the expected values, the mixture is synergistic.

[7] = test system: giant foxtail (SETFA); assay: Test 2 field trial, preemergence; format: in vivo, Setaria faberi; parameters: scale not given here
Source text: (§2) Corn seeds (hybrid ‘Pioneer 31G96’) were planted in mid spring season, 3.8 cm deep in a clay loam soil having 2% organic matter and a pH of 6.6. Plots were 6.1 m long by 3.0 m wide with rows spaced 76 cm apart. Seeds were spaced 15 cm apart within the rows. The field was managed using conventional tillage practices. […] A few of the weed species could not be evaluated at every timing. […] Results are the means of the three replicates.

[8] = test system: corn (ZEAMD); assay: Test 2 field trial, preemergence; format: in vivo, Zea mays ssp. indentata
Source text: as §2

[9] = 18 DAA, g a.i./ha: Cpd 2 25, Atrazine 250
[10] = 18 DAA, g a.i./ha: Cpd 2 50, Atrazine 500
[11] = 18 DAA, g a.i./ha: Cpd 2 75, Atrazine 750
[12] = 18 DAA, g a.i./ha: Cpd 2 100, Atrazine 1000
[13] = 18 DAA, g a.i./ha: Cpd 2 150, Atrazine 1500
[14] = 28 DAA, g a.i./ha: Cpd 2 25, Atrazine 250
[15] = 28 DAA, g a.i./ha: Cpd 2 50, Atrazine 500
[16] = 28 DAA, g a.i./ha: Cpd 2 75, Atrazine 750
[17] = 28 DAA, g a.i./ha: Cpd 2 100, Atrazine 1000
[18] = 28 DAA, g a.i./ha: Cpd 2 150, Atrazine 1500
[19] = 55 DAA, g a.i./ha: Cpd 2 25, Atrazine 250
[20] = 55 DAA, g a.i./ha: Cpd 2 50, Atrazine 500
[21] = 55 DAA, g a.i./ha: Cpd 2 75, Atrazine 750
[22] = 55 DAA, g a.i./ha: Cpd 2 100, Atrazine 1000
[23] = 55 DAA, g a.i./ha: Cpd 2 150, Atrazine 1500

`O=C(O)COc1ccc(Cl)cc1Cl` [2,4-D, (2,4-dichlorophenoxy)acetic acid] was tested, and the “TRZAW Obs” value ([1]; Postemergence, 17 DAA, g a.i./ha: Cpd 2 16, 2,4-D 250) was 23, the “TRZAW Obs” value ([1]; Postemergence, 17 DAA, g a.i./ha: Cpd 2 16, 2,4-D 500) was 23 and the “TRZAW Obs” value ([1]; Postemergence, 17 DAA, g a.i./ha: Cpd 2 16, 2,4-D 1000) was 25. The “Postemergence PAPRH Obs” value ([2]; 2,4-D alone 125 g a.i./ha) was 35, the “Postemergence PAPRH Obs” value ([2]; 2,4-D alone 250 g a.i./ha) was 35 and the “Postemergence CHEAL Obs” value ([3]; 2,4-D or MCPA alone 250 g a.i./ha) was 60.
In the case of `O=C(O)CNCP(=O)(O)O` [Glyphosate], the “CHEAL Obs” value [4] is reported as 0%.
`CCc1cccc(C)c1N(C(=O)CCl)[C@@H](C)COC` [S-Metolachlor, S-metolachlor, reference compound] was tested, and the “DATST Obs” value ([5]; 14 DAA, 1000 g a.i./ha) was 65%, the “DATST Obs” value ([5]; 28 DAA, 1000 g a.i./ha) was 57% and the “DATST Obs” value ([5]; 62 DAA, 1000 g a.i./ha) was 0%. For the same molecule, the “Obs growth % of control” value ([6]; 19 DAA, 1870 g a.i./ha) was 100%, the “Obs growth % of control” value ([6]; 28 DAA, 1870 g a.i./ha) was 22% and the “Obs growth % of control” value ([6]; 56 DAA, 1870 g a.i./ha) was 30%.
`CCNc1nc(Cl)nc(NC(C)C)n1` [Atrazine, atrazine, reference compound] was tested, and the “SETFA Obs” value [7, 9] was 20, the “SETFA Obs” value [7, 10] was 25 and the “SETFA Obs” value [7, 11] was 40. The “SETFA Obs” value [7, 12] was 43, the “SETFA Obs” value [7, 13] was 38 and the “SETFA Obs” value [7, 14] was 37. For the same molecule, the “SETFA Obs” value [7, 15] was 67, the “SETFA Obs” value [7, 16] was 83 and the “SETFA Obs” value [7, 17] was 87. The “SETFA Obs” value [7, 18] was 88, the “SETFA Obs” value [7, 19] was 35 and the “SETFA Obs” value [7, 20] was 60. For the same molecule, the “SETFA Obs” value [7, 21] was 58, the “SETFA Obs” value [7, 22] was 65 and the “SETFA Obs” value [7, 23] was 80. For the same molecule, the “ZEAMD Obs” value [8, 9] was 8, the “ZEAMD Obs” value [8, 10] was 5 and the “ZEAMD Obs” value [8, 11] was 15. For the same molecule, the “ZEAMD Obs” value [8, 12] was 7, the “ZEAMD Obs” value [8, 13] was 5 and the “ZEAMD Obs” value [8, 14] was 2. The “ZEAMD Obs” value [8, 15] was 7, the “ZEAMD Obs” value [8, 16] was 12 and the “ZEAMD Obs” value [8, 17] was 8. The “ZEAMD Obs” value [8, 18] was 3, the “ZEAMD Obs” value [8, 19] was 0 and the “ZEAMD Obs” value [8, 20] was 0. The “ZEAMD Obs” value [8, 21] was 0, the “ZEAMD Obs” value [8, 22] was 0 and the “ZEAMD Obs” value [8, 23] was 0.
`COC(=O)c1nc(C2CC2)nc(N)c1Cl` [Compound 2, methyl 6-amino-5-chloro-2-cyclopropyl-4-pyrimidinecarboxylate] was tested, and the “SETFA Obs” value [7, 9] was 13, the “SETFA Obs” value [7, 10] was 22 and the “SETFA Obs” value [7, 11] was 32. The “SETFA Obs” value [7, 12] was 35, the “SETFA Obs” value [7, 13] was 43 and the “SETFA Obs” value [7, 14] was 5. For the same molecule, the “SETFA Obs” value [7, 15] was 10, the “SETFA Obs” value [7, 16] was 30 and the “SETFA Obs” value [7, 17] was 23. The “SETFA Obs” value [7, 18] was 65, the “TRZAW Obs” value ([1]; in vivo) was 43 and the “DATST Obs” value ([5]; 14 DAA, 125 g a.i./ha) was 98%. The “DATST Obs” value ([5]; 14 DAA, 250 g a.i./ha) was 98%, the “DATST Obs” value ([5]; 14 DAA, 500 g a.i./ha) was 100% and the “DATST Obs” value ([5]; 28 DAA, 125 g a.i./ha) was 98%. For the same molecule, the “DATST Obs” value ([5]; 28 DAA, 250 g a.i./ha) was 98%, the “DATST Obs” value ([5]; 28 DAA, 500 g a.i./ha) was 100% and the “DATST Obs” value ([5]; 62 DAA, 125 g a.i./ha) was 100%. The “DATST Obs” value ([5]; 62 DAA, 500 g a.i./ha) was 100%, the “Postemergence PAPRH Obs” value ([2]; Cpd 2 alone 16 g a.i./ha) was 65 and the “ZEAMD Obs” value ([8]; hybrid Pioneer 31G96, corn (Zea mays ssp. indentata), in vivo, 55 days after application) was 0. The “Postemergence CHEAL Obs” value ([3]; Cpd 2 alone 4 g a.i./ha) was 50, the “Postemergence CHEAL Obs” value ([3]; Cpd 2 alone 8 g a.i./ha) was 50 and the “Postemergence CHEAL Obs” value ([3]; Cpd 2 alone 16 g a.i./ha) was 65. For the same molecule, the “CHEAL Obs” value [4] was 100%, the “Obs growth % of control” value ([6]; 19 DAA, 75 g a.i./ha) was 93% and the “Obs growth % of control” value ([6]; 19 DAA, 100 g a.i./ha) was 73%. The “Obs growth % of control” value ([6]; 28 DAA, 75 g a.i./ha) was 32%, the “Obs growth % of control” value ([6]; 28 DAA, 100 g a.i./ha) was 30% and the “Obs growth % of control” value ([6]; 56 DAA, 75 g a.i./ha) was 0%. The “Obs growth % of control” value ([6]; 56 DAA, 100 g a.i./ha) was 5%.
